Measured values: publication PMC6675714 (Cancer Medicine, 2019)
Entries after “also recorded” stand apart in the source; their conditions may differ.

Experiments:
[1] = test system: xenograft Caki‐1 tumors; assay: Xenograft renal cancer intervention (efficacy) trial; assay type: in vivo, NOD.CB17‐Prkdc SCID/J mice; settings: 10 mg/kg/72h ip
Text: Tissue samples were processed as described above and analyzed for Ru and Au content using ICP‐MS
Percent of change in tumor burden in a cohort of 3 females and 3 males NOD.CB17‐Prkdc scid/J mice inoculated subcutaneously with 5 × 10^6 Caki‐1 cells. The treatment started when tumors were palpable (~5 mm diameter). […] (A) Representative histological samples of tumors resected from each treatment group.

[2] = test system: Caki‐1 xenograft tumors; assay: Protein expression in tumor lysates (Proteome Profiler arrays); assay type: in vivo, NOD.CB17‐Prkdc SCID/J mice; settings: tumor lysate, 21‐day trial, vs vehicle
Experimental: Whole tumors were extracted at the trial endpoint and lysed. Before application to the array, protein concentration was determined by BCA. Then 150 µg of lysate was incubated for 24 hours with the Proteome Profiler Human XL Oncology Array (ARY026, R&D Systems) and Human Cell Stress Array (ARY018, R&D Systems). The relative expression levels of the proteases were determined according to the manufacturer's protocol, and signal intensities were compared using HLImage^++ software.

[3] = Plasma chemistry parameters after the trial; assay type: in vivo, tumor bearing NOD-SCID mice
Experimental: Supplementary Table 1. Summary of plasma chemistry parameters metabolic analytes for three specimens (collected 72h after the last dose of 10mg/kg/72h at the end of a 21 day trial) from 3 tumor bearing NOD-SCID (NOD/LtSz-Prkdscid/j. The study criteria reflect pathological criterion used in clinical studies. Metabolic markers were quantified from freshly isolated plasma and compared to reference range.

[4] = Hematology values (complete blood count) after the trial; assay type: in vivo, NOD-SCID mice
Experimental: Supplementary Table 2. Summary of hematology values (mean) for three specimens (collected 72h after the last dose of 10mg/kg/72h at the end of a 21 day trial (NOD/LtSz-Prkdscid/j. Complete blood counts of each group (n = 3 mice per group). Heparinized blood acquired from mice was assessed using the automatic Hematology Analyzer. Blood smears were carried out and fixed with methanol, stained, and observed under the microscope to carry out differential blood white cell counts.

[5] = test system: Caki‐1 xenograft tumors; assay: Cell proliferation (Ki67) and apoptosis (cleaved caspase 3) in tumor sections; assay type: in vivo, NOD.CB17‐Prkdc SCID/J mice; settings: tumors at 21‐day trial endpoint
Experimental: Tissue sections were prepared by embedding in OCT (Thermo Fisher Scientific, Waltham, MA) followed by freezing at − 80°C. Vessel leakiness was evaluated following tail‐vein injection of 100 μL of Dextran Texas Red (Invitrogen). Vessel integrity was assessed after tail‐vein injection of 50 μL of lectin labelled with FITC (Vector Labs, Burlingame, CA). Apoptotic cells were visualized using an anti‐rabbit cleaved caspase 3 primary antibody (Cell Signaling Technology, Danvers, MA) and an goat‐anti‐rabbit Alexa Fluor 594 secondary antibody (Cell Signaling Technology); proliferating cells were visualized using an anti‐mouse Ki67 primary antibody (Cell Signaling Technology) and an goat‐anti‐mouse Alexa Fluor 488 secondary antibody (Cell Signaling Technology); DAPI containing ProLong Gold Antifade Mounting Medium (Cell Signaling Technology) was used to visualize the nuclei and mount the slide.
For all histological analyses, tumors from treated mice were compared to those of the vehicle control of the intervention trial. Samples from 4 mice per treatment group were analyzed. Stained samples were imaged at 20× magnification (ZEISS LSM 700). Cell proliferation and apoptosis were quantified one channel at a time using ImageJ (NIH, open access software) and were calculated as the percentage of Ki67 positive or cleaved caspase 3 positive cells per DAPI positive cells per field of view.

[6] = plasma 72h after last dose of 10mg/kg/72h, 21 day trial
[7] = automatic count, blood 72h after last dose, 21 day trial, mean n = 3

With “[Cl2(p‐cymene)Ru(μ‐dppm)Au(IMes)]ClO4 [RANCE‐1]” the “Weight and well‐being during the trial” value ([1]; 21 days) was “no significant change in weight or any decline in the well‐being”, the “Tumor burden after treatment” value ([1]; 21 days of treatment, total of 7 doses) was “no change in tumor burden” and the “CCL7 and CCL8 levels” value [2] was “decrease”. For the same substance, the “Expression of CapG protein” value [2] was “suppressed”, the “Expression of HIF‐1a, ICAM, VE‐Cadherin, and VCAM‐1” value [2] was “significantly decreased” and the “Expression of growth factors VEGF, PDGF, FGF, EGFR, and HGRF” value [2] was “Significant reduction; also recorded: decrease”. The “Expression of immune factors IL‐2R and GM‐CSF” value [2] was “increase”, the “M‐CSF expression” value [2] was “increase” and the “Prometastatic factors CtsB, CtsS, FoxC2, MMP‐2, MMP‐3, MMP‐8, ADAM8, and ADAMP9” value [2] was “significant decrease”. The “Clinical chemistry, treated vs control animals” value ([3]; end of trial) was “no differences”, the Kidney health indicators ([3]; end of trial) was “within normal values” and the DBIL [3, 6] was 0.033 mg/dL. For the same substance, the GGT [3, 6] was 0 U/L, the IBIL [3, 6] was 0.2 mg/dL and the TCO2 [3, 6] was 18 mEq/L. For the same substance, the “Anion Gap” value ([3]; plasma 72h after last dose of 10mg/kg/72h, 21 day trial, marked *▴) was 37.63, the CREA ([3]; plasma 72h after last dose of 10mg/kg/72h, 21 day trial, reference range 0.2-0.5) was 0.117 mg/dL and the TBIL ([3]; plasma 72h after last dose of 10mg/kg/72h, 21 day trial, reference range 0.2-0.6) was 0.23 mg/dL. It also gave a GLOB ([3]; plasma 72h after last dose of 10mg/kg/72h, 21 day trial, reference range 1.7-2.2) of 2.63 g/dL, an ALB ([3]; plasma 72h after last dose of 10mg/kg/72h, 21 day trial, reference range 2.4-4.3) of 2.57 g/dL and an ALT ([3]; plasma 72h after last dose of 10mg/kg/72h, 21 day trial, reference range 27-195) of 170.66 U/L. The AST ([3]; plasma 72h after last dose of 10mg/kg/72h, 21 day trial, reference range 54-77) was 394.67 U/L, the CHOL ([3]; plasma 72h after last dose of 10mg/kg/72h, 21 day trial, reference range 55-169) was 87.67 mg/dL and the TRIG ([3]; plasma 72h after last dose of 10mg/kg/72h, 21 day trial, reference range 67-289, marked *▾) was 116 mg/dL. It also gave an ALP ([3]; plasma 72h after last dose of 10mg/kg/72h, 21 day trial, reference range 105-370, marked *▾) of 39.33 U/L, a Cl ([3]; plasma 72h after last dose of 10mg/kg/72h, 21 day trial, reference range 111-134) of 106 mEq/L and a GLU ([3]; plasma 72h after last dose of 10mg/kg/72h, 21 day trial, reference range 172-372, marked *▾) of 165 mg/dL. For the same substance, the RBC ([4]; automatic count, blood 72h after last dose of 10mg/kg/72h, 21 day trial, mean n = 3, reference range 7.84-10.84) was 10.31 M/uL, the PDW [4, 7] was 7.5 fL and the RDW-SD [4, 7] was 31.03 fL. It also gave an RET ([4]; automatic count, blood 72h after last dose, 21 day trial, mean n = 3, reference range 2.56-4.56, marked *▾) of 2.03%, an MPV ([4]; automatic count, blood 72h after last dose, 21 day trial, mean n = 3, reference range 4.2-6.3) of 6.53 fL and an HGB ([4]; automatic count, blood 72h after last dose, 21 day trial, mean n = 3, reference range 11.8-17.6) of 15.8 g/dL. For the same substance, the MCH ([4]; automatic count, blood 72h after last dose, 21 day trial, mean n = 3, reference range 13.7-17.2) was 15.37 pg, the RDW-CV ([4]; automatic count, blood 72h after last dose, 21 day trial, mean n = 3, reference range 17.3-20.3) was 23.5% and the MCHC ([4]; automatic count, blood 72h after last dose, 21 day trial, mean n = 3, reference range 25.1-31.3) was 29.9 g/dL. The HCT ([4]; automatic count, blood 72h after last dose, 21 day trial, mean n = 3, reference range 44.1-58.3) was 52.8%, the MCV ([4]; automatic count, blood 72h after last dose, 21 day trial, mean n = 3, reference range 51.1-58.6) was 51.3 fL and the “RET#” value ([4]; automatic count, blood 72h after last dose, 21 day trial, mean n = 3, reference range 294-444, marked *▾) was 192.67 K/uL. For the same substance, the PLT ([4]; automatic count, blood 72h after last dose, 21 day trial, mean n = 3, reference range 651-2055, marked *▾) was 1056.67 K/uL, the “Morphology (manual differential section)” value ([4]; blood smears, end of 21 day trial) was “Many neutrophils are hypersegmented” and the “Morphology (automatic count section)” value ([4]; blood smears, three specimens, end of 21 day trial) was 2+ PLT clumps. RBC morphology is within normal limits. 4+ polychromasia. 2+ acanthocytes. 4+ polychromasia. 2+ acanthocytes. For the same substance, the “Physicochemical study and complete blood count” value ([4]; end of trial) was “no significant changes”, the “Band#” value ([4]; manual differential, blood 72h after last dose, 21 day trial) was 0 K/uL and the “MONO#” value ([4]; manual differential, blood 72h after last dose, 21 day trial, reference range 0.03-0.26) was 0 K/uL. The “LYMPH#” value ([4]; manual differential, blood 72h after last dose, 21 day trial, reference range 0.23-1.56, marked *▴) was 0.6167 K/uL, the “Neut#” value ([4]; manual differential, blood 72h after last dose, 21 day trial, reference range 0.54-3.16, marked *▴, ◎) was 8.55 K/uL and the MONO ([4]; manual differential, blood 72h after last dose, 21 day trial, reference range 1.71-10.93, marked *▾) was 2%. For the same substance, the LYMPH ([4]; manual differential, blood 72h after last dose, 21 day trial, reference range 13.51-42.61, marked *▾) was 15.67%, the NEUT ([4]; manual differential, blood 72h after last dose, 21 day trial, reference range 44.21-79.92, marked *▴) was 80.67% and the “Apoptotic cells (cleaved caspase 3 positive) per DAPI positive cells” value [5] was 1.6%. For the same substance, the “Proliferating cells (Ki67 positive) per DAPI positive cells” value [5] was 2%, the “Reduction of tumor cell proliferation vs Veh” value [5] was 18 fold and the Decrease in apoptosis ([5]; vs Vehicle) was 0.4%. The “Decrease in cell proliferation” value ([5]; vs Vehicle) was 36%.
